From PMC9022229, “Induction of Paraptosis by Cyclometalated Iridium Complex-Peptide Hybrids and CGP37157 via a Mitochondrial Ca^2+ Overload Triggered by Membrane Fusion between Mitochondria and the Endoplasmic Reticulum” (Biochemistry, 2022) come the findings set out here.

Holding throughout (format): cell-based
Experiment [1] concerns Jurkat cells. The experiment can be described thus: Mitochondrial membrane potential (ΔΨm) by DilC1(5) confocal microscopy. As to the method: The mitochondrial membrane potential (ΔΨm) was measured by means of DilC1(5) (1,1′,3,3,3′,3′-hexamethylindodicarbocyanine iodide), the emission intensity of which responds to ΔΨm.[95] Jurkat cells were treated with CGP37157 (100 μM) for 1–12 h, stained with DilC1(5) (5 μM) for 30 min, and observed via confocal microscopy. […] The decrease in ΔΨm with 4 was also observed by confocal microscopy (Figure 6B).
In a 1.5 mL Eppendorf tube, Jurkat cells (2.0 × 10^5 cells) were stained with DilC1(5) (500 nM, 100 μL) in 10% FBS/RPMI 1640 medium for 30 min at 37 °C under 5% CO2, followed by the treatment with 4 (5 μM, 100 μL) in the medium for 0–60 min at 37 °C under 5% CO2. For CGP37157, Jurkat cells (2.0 × 10^5 cells) were treated with CGP37157 (100 μM, 100 μL) in 10% FBS/RPMI 1640 medium for 0–12 h at 37 °C under 5% CO2, followed by the treatment with DilC1(5) (500 nM, 100 μL) in PBS. The cells were washed with PBS and observed by confocal microscopy (Fluoview, FV-1000, Olympus) using a Greiner CELLview dish (35 mm × 10 mm). Excitation at 405 nm and emission from 470 to 520 nm were used for 4. Excitation at 635 nm and emission from 650 to 750 nm were used for DilC1(5). The exposure time was 20 μs/pixel.

Experiment [2] concerns Jurkat cells. Nature of the experiment: TEM analysis of cytoplasmic vacuolization. As for the experimental part:
The morphological changes in Jurkat cells induced by CGP37157 (Figure 3B) were similar to those induced by 4 (Figure 1B) and confirmed in detail by TEM (transmission electron microscopy). Jurkat cells were treated with CGP37157 (100 μM) for 12 h, prefixed with glutaraldehyde and postfixed with osmium tetroxide (OsO4), and included in Poly 812 resin. The resulting samples were sliced and then observed by TEM. […] Similar TEM images were reported with respect to paraptosis-inducing natural compounds by some research groups: (i) paraptosis in MDA-MB 435S cells,[17] HeLa cells,[18] and Jurkat cells (Figure 4d and in our previous publications)[56]−[58] induced by celastrol, (ii) paraptosis in HeLa cells induced by 8-p-hydroxybenzoyl tovarol,[23] and (iii) paraptosis in A2780 cells and SKOV-3 cells induced by morusin.[22] Therefore, we believe that Jurkat cells undergo vacuolization in the paraptotic processes induced by 4 and CGP37157, as well as celastrol.
In a 1.5 mL Eppendorf tube, Jurkat cells (3.0 × 10^6 cells) were incubated with 4 (5 μM for 3 h), CGP37157 (100 μM for 12 h), and celastrol (1 μM for 24 h) in 10% FBS/RPMI 1640 medium at 37 °C under 5% CO2. After centrifugation (2000 rpm, 3 min, 4 °C), the cells were washed twice with PBS, prefixed with glutaraldehyde (2.5%) at 4 °C for 40 min, and then washed twice with PBS. Osmium tetroxide (1%) was used for postfixation, and the solution was incubated at 4 °C for 30 min. The cells were washed with PBS, included in an agarose gel, and dehydrated by using 50–100% and anhydrous EtOH. The cells were embedded into Poly 812 resin (Nisshin EM Co. Ltd.) at 60 °C for 3 days. The resin was sliced with a glass knife (150 nm thickness) on an ultramicrotome (EM UC6, Leica), and the samples were stained with EM stainer (Nisshin EM Co. Ltd.) and observed on TEM instrument (H-7650, Hitachi) with electron irradiation at 100 kV.

In a further experiment the test system is mitofusin 2 (MFN2). Nature of the experiment: Western blot analysis of MFN2 in Jurkat cells. As to the method:
In a 1.5 mL Eppendorf tube, Jurkat cells (1.0 × 10^6 cells) were incubated in the presence of 4 ([…]), CGP37157 (100 μM for 0–24 h or 0–100 μM for 12 h), and celastrol (0–10 μM for 24 h or 1 μM for 0–24 h) at 37 °C under 5% CO2. After the cells had been washed twice with PBS, the proteins were extracted by using RIPA buffer (Nacalai Tesque) and quantified using a Pierce BCA Protein Assay Kit (Thermo Scientific). Proteins (7.5 μg/well) for MFNs and DRP1 and proteins (5.0 μg/well) for GAPDH were used for sodium dodecyl sulfate–polyacrylamide gel electrophoresis (SDS–PAGE) (7.5% for MFNs and DRP1 and 10% for GAPDH) (Bio-Rad). After SDS–PAGE, the proteins were transferred to a polyvinylidene fluoride membrane (Merck Millipore) by using a semi dry blotter (Bio-Rad). The membrane was blocked with Blocking One solution (Nacalai Tesque) for 30 min at room temperature. After being blocked, the membrane was washed three times with 1× TBST and treated with primary antibodies overnight (at a dilution of 1/1000 for MFNs and DRP1 or 1/2000 for GAPDH) in a signal enhancer HIKARI-solution A (Nacalai Tesque). The membrane was washed three times with 1× TBST and treated with the anti-mouse or anti-rabbit IgG HRP-conjugated secondary antibody (at a dilution of 1/4000 for MFNs and DRP1 or 1/10000 for GAPDH) in 1× TBST for 60 min at room temperature. The protein signal was spotted with a Chemi-Lumi One Ultra solution (Nacalai Tesque) using the ChemiDoc MP system (Bio-Rad). […]
For orientation: In western blotting, separated proteins are transferred to a membrane and probed.

Residues, ends and D or L forms follow the SMILES beside them. *: point of attachment. X1 = O=C(COc1ccc(-c2ccccn2)cc1)NCCCCCCCCN*

Consider `NCCCC[C@H](NC(=O)[C@H](CCCCN)NC(=O)[C@@H](N)CCCCN)C(=O)NCC(=O)NCC(=O)NCCCCCCCCNC(=O)COc1ccc(-c2ccccn2)cc1` [compound 4] (H-KKKGG-X1), for which the “Emission of DilC1(5) (ΔΨm)” value in the experiment with Jurkat cells [1] (4 at 5 μM, 20 min after treatment) was “decrease in emission intensity”. The “Morphological change by TEM” value in the experiment on Jurkat cells [2] (4 at 5 μM, 3 h) was “cytoplasmic vacuolization”. Moreover, the “Expression level of MFN2 (Figure 11A)” value with mitofusin 2 (MFN2) (4 at 5 μM, 30 min to 1 h) was “weakly changed”. Further, the “MFN2 band intensity relative to absence of compound” value with mitofusin 2 (MFN2) (Figure S8A, 4 at 1 µM, 1 h per legend) was 1.3; in the experiment with mitofusin 2 (MFN2) (Figure S8A, 4 at 2.5 µM, 1 h per legend), 1.3; in the experiment on mitofusin 2 (MFN2) (Figure S8A, 4 at 5 µM, 1 h per legend), 1.4; in the experiment on mitofusin 2 (MFN2) (Figure S8A, 4 at 10 µM, 1 h per legend) it was 1.4; with mitofusin 2 (MFN2) (Figure S8A, 4 at 20 µM, 1 h per legend), 1.3.
With `O=C1CSC(c2ccccc2Cl)c2cc(Cl)ccc2N1` (stereo not shown) [CGP37157], the “Emission of DilC1(5) (ΔΨm)” value in the experiment with Jurkat cells [1] (CGP37157 100 μM, 6 h) is recorded as “quenched”. In addition, the “Morphological change by TEM” value with Jurkat cells [2] (CGP37157 100 μM, 12 h) was “cytoplasmic vacuolization”. Besides, the “Expression level of MFN2 (Figure 11B)” value in the experiment with mitofusin 2 (MFN2) (CGP37157 100 μM, 1–6 h) is listed as “weakly changed”. Moreover, the “MFN2 band intensity relative to absence of compound” value came out at 1.1 with mitofusin 2 (MFN2) (Figure S8B, CGP37157 10 µM, 12 h); 1.6 in the experiment with mitofusin 2 (MFN2) (Figure S8B, CGP37157 20 µM, 12 h); 1.4 in the experiment with mitofusin 2 (MFN2) (Figure S8B, CGP37157 50 µM, 12 h); 1.2 in the experiment with mitofusin 2 (MFN2) (Figure S8B, CGP37157 80 µM, 12 h); 0.95 with mitofusin 2 (MFN2) (Figure S8B, CGP37157 100 µM, 12 h).
